Tests used:
[1] = system: CD8+ T cells; experiment: exogenous autologous normal donor restimulation assay, TNFα/IFNγ double positive CD8+ T cells by flow cytometry; assay type: cell-based, human; conditions: for Fold change (CD8+) vs. DMSO: maximum CD8+ T-cell response (TNFα and IFNγ); for Fold change (CD8+) vs. DMSO / Frequency (TNFα + IFNγ + CD8 T cells): donor independent, peptide pool 10 μg/mL, healthy donors; for Frequency (TNFα + IFNγ + CD8 T cells): maximum CD8+ T-cell response; for Immunogenic (yes/no): positive if CD8+ and/or CD4+ double positive TNFα/IFNγ frequency >=3-fold over DMSO and at least 0.01%
Description: (§1) The immunogenicity of neoantigens was assessed using the exogenous autologous normal donor restimulation assay. […] The lyophilized peptides were solubilized in 100% DMSO.
(§2) CD1c+ Dendritic Cells (CD1c+DC) isolated from human healthy PBMCs were thawed using media (IMDM (Gibco) supplemented with glutamine, HEPES, 5% human serum (Sigma), and 1× Pen-Strep). DC cells were resuspended in media supplemented with IL-4 (Peprotech, 20 ng/mL) and GM-CSF (Gibco, 20 ng/mL), plated in 6 well microplates, and rested overnight at 37° C. and 5% CO2 incubator. The following day, DC cells were counted and plated in a 96 well round bottom microplate at a concentration of 30,000 viable cells per well. Lyophilized neoantigen peptide pools (15-mer peptides with 8-mer overlapping peptide sequences) were solubilized in 100% DMSO with a stock concentration of 20 mg/mL Neoantigen peptides pools were added to DCs for a final concentration of 10 μg/mL and rested for 2 hours at 37° C. and 5% CO2 incubator. CEF Peptide Pool “Plus” (Cellular Technologies, Ltd.) was utilized as a positive control (each viral peptide at a final concentration of 4 ug/ml) and DMSO at the same final concentration (0.05%) as the experimental peptides was utilized as a negative control. After 2 hours, DC cells were irradiated with 50 gray of ionizing radiation. Autologous CD3+ Pan-T cells isolated from human normal PBMCs were thawed using media. Following irradiation, autologous Pan-T cells were added to the irradiated DCs at 300,000 viable cells per well. Human IL-15 (Peprotech) was added to all wells at final concentration of 10 ng/ml. Plates were incubated at 37° C. and 5% CO2 incubator for a total of 12 days. Media was refreshed every 2-3 days with IL-15 (R&D System, 10 ng/mL final concentration) and IL-2 (R&D systems, 10 IU/mL final concentration).
(§3) On Day 11, cells were re-stimulated with identical experimental peptide pools or controls, at same concentration as peptide stimulation on Day 1. Protein Inhibitor Cocktail (eBioscience) was added to every well and plate was incubated overnight for 14-16 hours at 37° C. and 5% CO2 incubator. On Day 12, cells were stained for surface and intracellular flow cytometry analysis. The cells were washed with PBS and stained with Live/Dead Fixable Aqua Dead Cell stain (Thermo-Fisher). Following the live/dead stain, cells were blocked using Biotin-Fre Fc Receptor Blocker (Accurate Chemical & Scientific Corp). Extracellular cellular flow panel ([…] per well in 50 μL) consisted of CD3 PerCP-Cy5.5 (Biolegend), CD4 BV421 (Biolegend), and CD8 APC-Cy7 (Biolegend). After extracellular staining, cells were fixed and permeabilized using Foxp3/Transcription Factor Staining Buffer Set (eBioscience) and stained for intracellular proteins (1:50 dilution) using TNFα FITC (R&D Systems) and IFNγ BV785 (Biolegend). Cells were washed and resuspended in stain buffer, analyzed, and recorded in a BD Celesta flow cytometer.
(§4) Flow cytometry analysis was conducted on FlowJo v10.6 software. Cells were gated on live, singlet, CD3+, CD4+ and CD8+ T cells. The CD8+ and CD4+ T cells were analyzed for TNFα and IFNγ expression.
(§5) The immunogenicity of neoantigens was first investigated in 9-16 healthy donors.

[2] = system: CD4+ T cells; experiment: exogenous autologous normal donor restimulation assay, TNFα/IFNγ double positive CD4+ T cells by flow cytometry; assay type: cell-based, human; conditions: donor independent, peptide pool 10 μg/mL, healthy donors; for Fold change (CD4+) vs. DMSO: maximum CD4+ T-cell response (TNFα and IFNγ); for Frequency (TNFα + IFNγ + CD4 T cells): maximum CD4+ T-cell response
Description: as §1, §2, §3, §4, §5

Sequence	Fold change (CD8+) vs. DMSO [1] [fold]	Frequency (TNFα + IFNγ + CD8 T cells) [1] [%]	Immunogenic (yes/no) [1]	Fold change (CD4+) vs. DMSO [2] [fold]	Frequency (TNFα + IFNγ + CD4 T cells) [2] [%]
LCAISVDRCAALPARAPAPPRPARRPHRGLCAVRRPLGAPRRFVAVAVP [AS159, neoantigen, alternative splicing of DRD4]	39.04	0.12	Yes	12.5	0.081
LDLAGNARPCRSQSPTSSDQTPSVPSLGSPELPDGEEGGSPDGSPQESEQVRQGQHV [AS103, neoantigen, alternative splicing of GTF2IRD1]	48.82	0.83	Yes	6.62	0.086
LEEEFISEWRRCLLCSYLQW [AS63, neoantigen, alternative splicing of IMPG2]	185.74	0.5	Yes	13.54	0.15
LLFFVAGEVLRHEEFE [FUS15, neoantigen, gene fusion NXN->GLOD4]	8.84	0.19	yes	16.21	0.08
LLFPYNQLDLHLHRPSGSRKNEIHWDKCFSSED [AS68, neoantigen, alternative splicing of PKHD1L1]	17.52	0.11	Yes	5.43	0.024
LRLRPNRRRASSAQTAPTSSLSLWSGASRRRRPAGGHMWCTAGRPSSRSGQNLTGTCTMKPLAWETFPTCWAWWGTSWATQSGSGGMPSQAATASRCCWWWTTRWFASMARSMCRTMSSPS [AS1]	29.8	0.57	Yes	16.77	0.15
LRSLAGTYGRSPSPATRRKRSWSC [FUS25, neoantigen, gene fusion CLCF1->POLD4]	2.79	0.048	Yes	16.49	0.059
LSPGGACVDIDECDRQ [AS81, neoantigen, alternative splicing of FBN3]	10.83	0.1	Yes	3.22	0.028
MAGGVLRRLLCREPDRDGDKGASREETVVPLHIGDPVVLPGIGQCYSALF [FUS1, neoantigen, gene fusion TSTD1->F11R]	2.79	0.06	yes	5.43	0.011
MHRKLQARSPSLCTGHPPQAA [AS75, neoantigen, alternative splicing of TSPAN10]	2.64	0.16	Yes	3.46	0.014
MPGHGAICSGSSRQPD [AS82, neoantigen, alternative splicing of IMPG2]	13.55	0.82	Yes	5.88	0.026
MSQESDKNGLSSRSWMNTWILPEVL [AS102, neoantigen, alternative splicing of GRHL2]	5.65	0.096	Yes	4.47	0.029

Reference: patent US11945881B2, “Neoantigens expressed in ovarian cancer and their uses” (Janssen Biotech, Inc., priority 2020, dated 2024)
